Experimental data reported in patent publication US11564913B2, “Compositions and methods for treating cancer” (Children's Hospital Medical Center, priority 2019, dated 2023).

What was measured:
[1] = test system: NIH-3T3 cells; assay: PDGF-induced circular dorsal ruffle (CDR) formation; format: cell-based; conditions: 0-3 μM for 1 h, PDGF for 10 min
[2] = test system: H2122 lung cancer xenografts; assay: H2122 xenograft mouse model; format: in vivo, mice
Description: FIG. 8: IODVA1 inhibits tumor growth of human breast and lung cancer xenografts. […] (B) Tumors were also stained for Ki67 as a proliferation marker (top panel). […] (C) Quantification of Ki67-positive and cleaved caspase 3-positive cells of tumors shown in (B). […] Animals began treatment when tumors became detectable at 10 days post-injection (*, p<0.05). […] IODVA1 treated tumors also had fewer proliferating cells compared to control vehicle treated animals, as determined by immunohistochemical staining for Ki67 (bottom) and increased intratumoral fibrosis. Representative images were taken at 100× magnification, scale bar is 200 μm. (F) Quantification of Ki67+ cells in control and IODVA1 treated tumors shown in (E).
The lung cancer mouse model was generated by injecting the lung cancer H2122 cells at the right and left flanks of NSG mice. These cells harbor the KRAS^G12C mutation and form aggressive tumors. Mice were treated with IODVA1 or with vehicle control every other day for 14 days. […]
Human lung cancer cell line NCI-H2122 (ATCC) harboring biallelic KRAS^G12C mutations were cultured in RPMI-1640 supplemented with 10% FBS. […] Tumor size was measured using digital calipers and tumor volume estimated using the formula (length×width^2)/2. […] A minimum of 20 random fields were used for quantification. […]

[3] = test system: ST8814, MCF7, MDA-MB-231, and T47D cells; assay: Cellular GI50s (summary of cell proliferation); format: cell-based
Description: Applicants tested IODVA1's ability to inhibit the proliferation of cells harboring activated Ras and therefore its ability to recapitulate the compound obtained from the NCI. Applicants chose the NF1-associated malignant peripheral nerve sheath tumors (MPNST) cell line ST8814, which is characterized by active wild-type Ras (Basu et al., 1992; Mahller et al., 2006) and the triple negative breast cancer cell line MDA-MB-231 carrying the oncogenic KRAS^G13D mutation (Hollestelle et al., 2007). In addition, applicants used the non-transformed mammary epithelial cell line MCF10A (RAS^WT immortalized by a spontaneous t(3;9)(3p13;9p22) translocation that deletes the CDKN2A gene, also known as p16) and the non-invasive estrogen receptor (ER) and progesterone receptor (PR) positive RAS^WT breast cancer cell line MCF7 (wild-type p53) and T47D (mutant p53). Cells were grown in growth media containing IODVA1 at concentrations between 0.1 and 10 μM or vehicle control and cell number was counted using the trypan blue exclusion method. […] Appreciable decrease in proliferation of non-transformed MCF10A cells was not observed.
IODVA1 has two pyridine groups attached to a central imidazole group. […] To test this hypothesis, applicants evaluated the potential of IODVA1 to interfere with the ability of 369 recombinant wild-type kinases to hydrolyze ATP.

[4] = test system: CD34+ human peripheral blood cells transduced with p190-BCR-ABL; assay: Proliferation and survival of transduced CD34+ cells on OP-9 stroma; format: cell-based
Method: (§1) Cell proliferation was assessed by flow cytometry. (B) Cells were transduced and cultured as in (A) but incubated with either vehicle or IODVA1 (IO1, 1 or 3 μM) and survival (%) was determined by trypan blue exclusion. […] LDBM cells were transduced with bicistronic p190-BCR-ABL1/EGFP retrovirus and transplanted into recipient mice. After initial assessment of leukemic burden, drugs were delivered in subcutaneously implanted osmotic pumps, each lasting two weeks. (D) Kaplan-Meier survival plot of secondary mice transplants with the 10^6-cell dilution.
(§2) IODVA1 specifically targets BCR-ABL B-ALL cells in vitro. To confirm that IODVA1 is specific for oncogene-expressing cells, we tested its efficacy on the proliferation and survival of CD34^+ human peripheral blood mononuclear cells transduced with retroviral bicistronic p190-BCR-ABL or Mieg3 empty vector (Williams, 2000). As expected, expression of BCR-ABL increased cell proliferation (FIG. 10A). Treatment with IODVA1 (IO1, […]) decreased proliferation of BCR-ABL-transformed cells, while proliferation of empty vector Mieg3 transduced cells was not affected. We then assessed survival of p190-BCR-ABL-transformed CD34^+ cells in the presence of IODVA1 by trypan blue exclusion. The survival of p190-BCR-ABL expressing cells decreased in a dose-dependent manner to 60±16% (SEM, N=3) at 1 μM on day 5 and to 1±0.2% (SEM, N=3) at 3 μM on day 3 (FIG. 10B). Survival of empty vector-expressing cells was not affected by IODVA1.

[5] = test system: CD34+ human peripheral blood cells transduced with Mieg3 empty vector; assay: as above; format: cell-based
Method: as §1, §2

OC1(c2ccccn2)N=C(Nc2nc3ccccc3[nH]2)N=C1c1ccccn1 (stereo not drawn) [IODVA1, (Z)-2-((1H-benzo[d]imidazol-2-yl)imino)-4,5-di(pyridin-2-yl)-2,5-dihydro-1H-imidazol-5-ol]
CDR formation [1]: inhibited | tumor volume ([2]; IP 250 μl of 1 mM every other day for 14 days): significant decrease | number of Ki67-positive tumor cells ([2]; IP every other day for 14 days): significant decrease | GI50 [3]: 500 to 1000 nM | survival, trypan blue exclusion ([4]; 1 μM, day 5 (SEM, N=3)): 60±16% | survival, trypan blue exclusion ([4]; 3 μM, day 3 (SEM, N=3)): 1±0.2% | proliferation ([4]; IODVA1 (IO1, μM)): decreased | proliferation [5]: not affected | survival ([5]; 1 or 3 μM): not affected
